Source: US12146004B2, “Polymyxin compounds and uses thereof” (priority 2014, dated 2024)
Values after ≈ are worked out from the molar mass of the structure shown. Like-named read-outs stand apart in the source and are kept apart here. Bridge positions count the residues as written; N and C are the ends. Square brackets hold non-standard residues; d marks the D form. Peptide text beside a SMILES is read from it. * marks the point of attachment. ξ: configuration not given here. dBip = N[C@H](Cc1ccc(-c2ccccc2)cc1)C(=O)O; ξHexahydromandeloyl = O=C(C(O)C1CCCCC1)*; Octanoyl(6-Me) = CCC(C)CCCCC(=O)*; X3 = CCCCCCCCN1CCNC[C@H]1C(=O)*; dCha = N[C@H](CC1CCCCC1)C(=O)O; Thr(3ξ) = CC(O)[C@H](N)C(=O)O; X7 = NCC(CC(=O)*)c1ccccc1; Dab = NCC[C@H](N)C(=O)O; Dap = NC[C@H](N)C(=O)O; X2 = CC(C)CC(CN)C(=O)*

Assays:
Assay type in all cases: cell-based
[1] = tested on: Klebsiella pneumoniae
Summary of the method: (§1)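 Values are minimum inhibitory concentrations in μg/mL, measured across a panel of up to nine strains of each Gram-negative pathogen, some Polymyxin-elevated or resistant.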

[2] = tested on: Acinetobacter baumannii
Summary of the method: as §1

[3] = tested on: Escherichia coli
Summary of the method: as §1

[4] = tested on: Pseudomonas aeruginosa
Summary of the method: as §1

[5] = tested on: HK-2 cells
Text: Values are reported relative to Polymyxin B.

SMILES	MIC K. pneumoniae 062 [1] [µg/mL]	MIC K. pneumoniae 063 [1] [µg/mL]	MIC K. pneumoniae 064 [1] [µg/mL]	MIC K. pneumoniae 065 [1] [µg/mL]	MIC K. pneumoniae 066 [1] [µg/mL]	MIC K. pneumoniae 067 [1] [µg/mL]	MIC K. pneumoniae ATCC 4352 [1] [µg/mL]	MIC A. baumanii 053 [2] [µg/mL]	MIC A. baumanii 056 [2] [µg/mL]	MIC A. baumanii ATCC BAA-747 [2] [µg/mL]	MIC E. coli 058 [3] [µg/mL]	MIC E. coli 059 [3] [µg/mL]	MIC E. coli 060 [3] [µg/mL]	MIC E. coli 061 [3] [µg/mL]	MIC E. coli ATCC 25922 [3] [µg/mL]	MIC P. aeruginosa 068 [4] [µg/mL]	MIC P. aeruginosa 070 [4] [µg/mL]	MIC P. aeruginosa ATCC 27853 [4] [µg/mL]	HK-2 IC50 [5] [µg/mL]	further results
CCC(C)CCCCC(=O)N[C@@H](CCN)C(=O)N[C@H](C(=O)N[C@@H](CCN)C(=O)N[C@H]1CCNC(=O)[C@H]([C@@H](C)O)NC(=O)[C@H](CCN)NC(=O)[C@H](CCN)NC(=O)[C@H](CC(C)C)NC(=O)[C@@H](Cc2ccc(-c3ccccc3)cc2)NC(=O)[C@H](CCN)NC1=O)C(C)O (some centres unmarked) [Example C3, reference compound] ({Octanoyl(6-Me)}-[Dab][Thr(3ξ)][Dab][Dab][Dab][dBip]L[Dab][Dab]T; lactam 4-C)	32 (≈ 25 µM)	8 (≈ 6.25 µM)	4 (≈ 3.13 µM)	0.5 (≈ 0.391 µM)	4 (≈ 3.13 µM)	32 (≈ 25 µM)	0.5 (≈ 0.391 µM)	16 (≈ 12.5 µM)	16 (≈ 12.5 µM)	1 (≈ 0.781 µM)	2 (≈ 1.56 µM)	1 (≈ 0.781 µM)	4 (≈ 3.13 µM)	8 (≈ 6.25 µM)	0.5 (≈ 0.391 µM)	2 (≈ 1.56 µM)	4 (≈ 3.13 µM)	1 (≈ 0.781 µM)	3	–
CC(C)CC(CN)C(=O)N[C@H](C(=O)N[C@@H](CCN)C(=O)N[C@H]1CCNC(=O)[C@H]([C@@H](C)O)NC(=O)[C@H](CCN)NC(=O)[C@H](CCN)NC(=O)[C@H](CC(C)C)NC(=O)[C@@H](CC2CCCCC2)NC(=O)[C@H](CCN)NC1=O)C(C)O (some centres unmarked) [Example 21] (X2-[Thr(3ξ)][Dab][Dab][Dab][dCha]L[Dab][Dab]T; lactam 3-C)	16 (≈ 14.6 µM)	64 (≈ 58.4 µM)	8 (≈ 7.3 µM)	–	16 (≈ 14.6 µM)	>64	0.25 (≈ 0.228 µM)	>64	64 (≈ 58.4 µM)	0.5 (≈ 0.456 µM)	8 (≈ 7.3 µM)	16 (≈ 14.6 µM)	8 (≈ 7.3 µM)	32 (≈ 29.2 µM)	0.25 (≈ 0.228 µM)	32 (≈ 29.2 µM)	32 (≈ 29.2 µM)	0.5 (≈ 0.456 µM)	83	–
CCCCC(CCN)C(=O)N[C@H](C(=O)N[C@@H](CN)C(=O)N[C@H]1CCNC(=O)[C@H]([C@@H](C)O)NC(=O)[C@H](CCN)NC(=O)[C@H](CCN)NC(=O)[C@H](CC(C)C)NC(=O)[C@@H](CC2CCCCC2)NC(=O)[C@H](CCN)NC1=O)[C@@H](C)O (single isomer, unassigned; isomer 2) [Example 41, 2-(2-aminoethyl) hexanoyl L-Thr-L-Dap-polymyxin [D-cyclohexylalanine]-6 heptapeptide. Isomer 2]	–	16 (≈ 14.6 µM)	–	1.5 (≈ 1.37 µM)	–	–	–	>32	32 (≈ 29.2 µM)	0.06 (≈ 0.0547 µM)	4 (≈ 3.65 µM)	–	–	8 (≈ 7.3 µM)	0.125 (≈ 0.114 µM)	4 (≈ 3.65 µM)	4 (≈ 3.65 µM)	0.5 (≈ 0.456 µM)	206	MIC K. pneumoniae ATCC 13882 [1]: 0.125 µg/mL (≈ 0.114 µM); MIC A. baumanii NCTC 13424 [2]: 0.06 µg/mL (≈ 0.0547 µM); MIC E. coli NCTC 9001 [3]: 0.06 µg/mL (≈ 0.0547 µM); MIC P. aeruginosa CCUG 59347 [4]: 0.5 µg/mL (≈ 0.456 µM); cytotoxicity [5]: significantly lower cytotoxicity compared with C6
CC(C)CC1CNCC(C(=O)N[C@H](C(=O)N[C@@H](CN)C(=O)N[C@H]2CCNC(=O)[C@H]([C@@H](C)O)NC(=O)[C@H](CCN)NC(=O)[C@H](CCN)NC(=O)[C@H](CC(C)C)NC(=O)[C@@H](Cc3ccc(Br)cc3)NC(=O)[C@H](CCN)NC2=O)C(C)O)C1 (single isomer, unassigned; isomer 2) [Example 12, (trans-5-(isobutyl-piperidine)-3-carbonyl L-Thr-L-Dap-polymyxin [D-(4-bromo Phe)]-6] heptapeptide Isomer 2]	8 (≈ 6.69 µM)	4 (≈ 3.35 µM)	1 (≈ 0.837 µM)	0.5 (≈ 0.418 µM)	1 (≈ 0.837 µM)	8 (≈ 6.69 µM)	0.125 (≈ 0.105 µM)	8 (≈ 6.69 µM)	–	0.125 (≈ 0.105 µM)	0.25 (≈ 0.209 µM)	1 (≈ 0.837 µM)	1 (≈ 0.837 µM)	1 (≈ 0.837 µM)	0.125 (≈ 0.105 µM)	1 (≈ 0.837 µM)	1 (≈ 0.837 µM)	0.25 (≈ 0.209 µM)	54	–
CCCCCCCCN1CCNC[C@H]1C(=O)N[C@H](C(=O)N[C@@H](CCN)C(=O)N[C@H]1CCNC(=O)[C@H]([C@@H](C)O)NC(=O)[C@H](CCN)NC(=O)[C@H](CCN)NC(=O)[C@H](CC(C)C)NC(=O)[C@@H](Cc2ccc(-c3ccccc3)cc2)NC(=O)[C@H](CCN)NC1=O)C(C)O (some centres unmarked) [Example 6] (X3-[Thr(3ξ)][Dab][Dab][Dab][dBip]L[Dab][Dab]T; lactam 3-C)	4 (≈ 3.17 µM)	4 (≈ 3.17 µM)	2 (≈ 1.58 µM)	1 (≈ 0.791 µM)	0.5 (≈ 0.396 µM)	4 (≈ 3.17 µM)	1 (≈ 0.791 µM)	8 (≈ 6.33 µM)	4 (≈ 3.17 µM)	1 (≈ 0.791 µM)	1 (≈ 0.791 µM)	0.5 (≈ 0.396 µM)	1 (≈ 0.791 µM)	2 (≈ 1.58 µM)	1 (≈ 0.791 µM)	2 (≈ 1.58 µM)	2 (≈ 1.58 µM)	–	3	–
CC(C)C[C@@H]1NC(=O)[C@@H](CC2CCCCC2)NC(=O)[C@H](CCN)NC(=O)[C@@H](NC(=O)[C@H](CN)NC(=O)[C@@H](NC(=O)CC(CN)c2ccccc2)C(C)O)CCNC(=O)[C@H]([C@@H](C)O)NC(=O)[C@H](CCN)NC(=O)[C@H](CCN)NC1=O (stereo partly drawn) [Example 39, 4-amino-3-phenylbutanoyl L-Thr-L-Dap-polymyxin [D-cyclohexylalanine]-6 heptapeptide.] (X7-[Thr(3ξ)][Dap][Dab][Dab][dCha]L[Dab][Dab]T; lactam 3-C)	–	–	–	–	–	–	–	–	–	–	–	–	–	–	–	–	–	–	–	MIC K. pneumoniae 063 ([1]; strain 063): 64 µg/mL (≈ 57.3 µM); MIC K. pneumoniae 065 ([1]; strain 065): 4 µg/mL (≈ 3.58 µM); MIC K. pneumoniae ATCC 13882 ([1]; strain ATCC 13882): 0.125 µg/mL (≈ 0.112 µM); MIC A. baumanii 053 ([2]; strain 053): 32 µg/mL (≈ 28.7 µM); MIC A. baumanii 056 ([2]; strain 056): 64 µg/mL (≈ 57.3 µM); MIC A. baumanii ATCC BAA-747 ([2]; strain ATCC BAA-747): 0.06 µg/mL (≈ 0.0537 µM); MIC A. baumanii NCTC 13424 ([2]; strain NCTC 13424): 0.03 µg/mL (≈ 0.0269 µM); MIC E. coli 058 ([3]; strain 058): 4 µg/mL (≈ 3.58 µM); MIC E. coli 061 ([3]; strain 061): 32 µg/mL (≈ 28.7 µM); MIC E. coli ATCC 25922 ([3]; strain ATCC 25922): 0.125 µg/mL (≈ 0.112 µM); MIC E. coli NCTC 9001 ([3]; strain NCTC 9001): 0.06 µg/mL (≈ 0.0537 µM); MIC P. aeruginosa 068 ([4]; strain 068): 4 µg/mL (≈ 3.58 µM); MIC P. aeruginosa 070 ([4]; strain 070): 4 µg/mL (≈ 3.58 µM); MIC P. aeruginosa ATCC 27853 ([4]; strain ATCC 27853): 0.5 µg/mL (≈ 0.448 µM); MIC P. aeruginosa CCUG 59347 ([4]; strain CCUG 59347): 0.5 µg/mL (≈ 0.448 µM); HK-2 IC50 ([5]; HK-2 cells): 337 µg/mL
CCCCCCCCC1CNCC1C(=O)N[C@H](C(=O)N[C@@H](CCN)C(=O)N[C@H]1CCNC(=O)[C@H]([C@@H](C)O)NC(=O)[C@H](CCN)NC(=O)[C@H](CCN)NC(=O)[C@H](CC(C)C)NC(=O)[C@@H](Cc2ccccc2-c2ccccc2)NC(=O)[C@H](CCN)NC1=O)C(C)O (single isomer, unassigned; isomer 2) [Example 10, trans-4-octylpyrrolidine-3-carbonyl polymyxin [D-(2-phenyl)Phe]-6] nonapeptide. Isomer 2]	2 (≈ 1.6 µM)	8 (≈ 6.41 µM)	2 (≈ 1.6 µM)	1 (≈ 0.801 µM)	4 (≈ 3.2 µM)	4 (≈ 3.2 µM)	1 (≈ 0.801 µM)	4 (≈ 3.2 µM)	4 (≈ 3.2 µM)	1 (≈ 0.801 µM)	1 (≈ 0.801 µM)	1 (≈ 0.801 µM)	2 (≈ 1.6 µM)	2 (≈ 1.6 µM)	2 (≈ 1.6 µM)	2 (≈ 1.6 µM)	2 (≈ 1.6 µM)	2 (≈ 1.6 µM)	4	–
CC(C)C[C@@H]1NC(=O)[C@@H](CC2CCCCC2)NC(=O)[C@H](CCN)NC(=O)[C@@H](NC(=O)[C@H](CCN)NC(=O)[C@@H](NC(=O)[C@H](CCN)NC(=O)C(O)C2CCCCC2)C(C)O)CCNC(=O)[C@H]([C@@H](C)O)NC(=O)[C@H](CCN)NC(=O)[C@H](CCN)NC1=O (some centres unmarked) [Example 37] (ξHexahydromandeloyl-[Dab][Thr(3ξ)][Dab][Dab][Dab][dCha]L[Dab][Dab]T; lactam 4-C)	–	–	–	16 (≈ 13.2 µM)	–	–	–	–	–	0.125 (≈ 0.103 µM)	8 (≈ 6.61 µM)	–	–	–	0.06 (≈ 0.0496 µM)	–	–	0.5 (≈ 0.413 µM)	–	MIC K. pneumoniae ATCC 13882 [1]: 0.25 µg/mL (≈ 0.207 µM); MIC A. baumanii NCTC 13424 [2]: 0.5 µg/mL (≈ 0.413 µM); MIC E. coli NCTC 9001 [3]: 0.06 µg/mL (≈ 0.0496 µM); MIC P. aeruginosa CCUG 59347 [4]: 0.5 µg/mL (≈ 0.413 µM)
